Test results reported in ChEMBL document CHEMBL1909046, “DrugMatrix in vitro pharmacology data”.

Experiments:
Calcitonin receptor = target: T1, Calcitonin receptor (Homo sapiens, UniProt P30988); assay type: cell membranes, Membrane; details: t47d; further: in other assays of this panel Not Active means under 50% inhibition at 10 µM
T1 sequence (P30988 whole entry): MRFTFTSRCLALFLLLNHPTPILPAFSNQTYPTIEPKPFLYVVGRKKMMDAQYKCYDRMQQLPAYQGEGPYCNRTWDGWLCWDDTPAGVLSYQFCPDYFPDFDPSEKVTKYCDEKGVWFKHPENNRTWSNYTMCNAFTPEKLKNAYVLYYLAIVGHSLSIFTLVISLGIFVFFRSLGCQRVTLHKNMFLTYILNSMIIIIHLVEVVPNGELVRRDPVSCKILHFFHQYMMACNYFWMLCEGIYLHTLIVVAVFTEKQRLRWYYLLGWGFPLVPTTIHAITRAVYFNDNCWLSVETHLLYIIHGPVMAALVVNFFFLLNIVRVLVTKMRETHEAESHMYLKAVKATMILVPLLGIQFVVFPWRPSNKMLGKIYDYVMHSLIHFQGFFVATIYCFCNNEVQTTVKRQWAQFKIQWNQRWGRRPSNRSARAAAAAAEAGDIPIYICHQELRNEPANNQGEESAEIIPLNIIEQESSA

[1] = target: Sigma non-opioid intracellular receptor 1 (Homo sapiens, UniProt Q99720); assay: DRUGMATRIX: Sigma1 radioligand binding (ligand: [3H] Haloperidol); assay type: cell membranes, Jurkat, Membrane; details: jurkat; Not Active = under 50% inhibition at 10 µM
Sequence of Sigma non-opioid intracellular receptor 1 (Q99720 whole entry): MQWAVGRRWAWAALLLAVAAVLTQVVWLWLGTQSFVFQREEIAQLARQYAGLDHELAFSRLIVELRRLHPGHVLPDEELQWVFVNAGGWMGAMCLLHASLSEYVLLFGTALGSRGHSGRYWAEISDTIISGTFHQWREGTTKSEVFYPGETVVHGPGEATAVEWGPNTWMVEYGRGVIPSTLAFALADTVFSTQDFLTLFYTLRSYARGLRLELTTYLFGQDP

[2] = target: Sodium-dependent dopamine transporter (Homo sapiens, UniProt Q01959); assay: DRUGMATRIX: Dopamine Transporter radioligand binding (ligand: [125I] RTI-55); assay type: cell membranes, CHO-K1, Membrane; details: cho-k1; Not Active = under 50% inhibition at 10 µM
Sequence of Sodium-dependent dopamine transporter (Q01959 whole entry): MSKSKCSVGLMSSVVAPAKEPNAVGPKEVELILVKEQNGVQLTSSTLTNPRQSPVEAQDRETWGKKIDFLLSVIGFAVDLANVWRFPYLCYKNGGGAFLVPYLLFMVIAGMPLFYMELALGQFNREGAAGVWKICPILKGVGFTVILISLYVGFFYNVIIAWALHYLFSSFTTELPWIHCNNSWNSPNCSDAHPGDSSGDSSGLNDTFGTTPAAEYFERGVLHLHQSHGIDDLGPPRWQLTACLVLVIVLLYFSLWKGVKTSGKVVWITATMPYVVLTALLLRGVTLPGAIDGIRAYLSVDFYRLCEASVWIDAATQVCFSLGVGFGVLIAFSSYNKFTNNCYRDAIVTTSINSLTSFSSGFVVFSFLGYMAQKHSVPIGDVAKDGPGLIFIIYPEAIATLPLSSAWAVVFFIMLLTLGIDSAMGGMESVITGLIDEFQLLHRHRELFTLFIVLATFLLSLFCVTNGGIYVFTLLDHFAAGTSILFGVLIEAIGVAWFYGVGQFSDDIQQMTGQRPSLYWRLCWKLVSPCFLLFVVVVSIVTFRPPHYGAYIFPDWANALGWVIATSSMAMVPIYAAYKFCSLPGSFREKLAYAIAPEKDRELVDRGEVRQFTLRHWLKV

[3] = DRUGMATRIX: Glutamate, NMDA, Phencyclidine radioligand binding (ligand: [3H] TCP); assay type: cell membranes, Rattus norvegicus, Wistar, Cerebral cortex, Membrane; details: Not Active = under 50% inhibition at 10 µM
[4] = target: T2, Amine oxidase [flavin-containing] A (Homo sapiens, UniProt P21397); assay: DRUGMATRIX: Monoamine Oxidase MAO-A enzyme inhibition (substrate: Kynuramine); design: species or system BTI-TN-5B1-4; details: bti-tn-5b1-4; Not Active = under 50% inhibition at 10 µM
T2 sequence (P21397 whole entry): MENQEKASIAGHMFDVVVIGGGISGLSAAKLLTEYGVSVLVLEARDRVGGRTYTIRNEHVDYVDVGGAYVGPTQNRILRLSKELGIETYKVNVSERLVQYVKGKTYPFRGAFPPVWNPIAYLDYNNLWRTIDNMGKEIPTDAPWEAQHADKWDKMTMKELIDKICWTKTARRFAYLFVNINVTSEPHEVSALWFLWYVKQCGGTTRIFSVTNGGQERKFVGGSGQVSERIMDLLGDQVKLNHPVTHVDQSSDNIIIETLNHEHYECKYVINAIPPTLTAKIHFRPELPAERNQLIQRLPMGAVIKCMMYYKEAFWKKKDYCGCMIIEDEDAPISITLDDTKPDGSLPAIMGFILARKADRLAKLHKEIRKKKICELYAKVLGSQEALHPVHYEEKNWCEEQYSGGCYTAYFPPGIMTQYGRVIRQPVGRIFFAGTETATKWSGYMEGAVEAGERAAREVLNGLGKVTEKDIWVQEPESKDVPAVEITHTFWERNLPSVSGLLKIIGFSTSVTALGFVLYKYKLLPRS

Nitric oxide synthase 1 = Nitric oxide synthase 1 (Rattus norvegicus, UniProt P29476); assay type: tissue-based, Cerebellum; further: in other assays of this panel Not Active means under 50% inhibition at 10 µM
Sequence of Nitric oxide synthase 1 (P29476 whole entry): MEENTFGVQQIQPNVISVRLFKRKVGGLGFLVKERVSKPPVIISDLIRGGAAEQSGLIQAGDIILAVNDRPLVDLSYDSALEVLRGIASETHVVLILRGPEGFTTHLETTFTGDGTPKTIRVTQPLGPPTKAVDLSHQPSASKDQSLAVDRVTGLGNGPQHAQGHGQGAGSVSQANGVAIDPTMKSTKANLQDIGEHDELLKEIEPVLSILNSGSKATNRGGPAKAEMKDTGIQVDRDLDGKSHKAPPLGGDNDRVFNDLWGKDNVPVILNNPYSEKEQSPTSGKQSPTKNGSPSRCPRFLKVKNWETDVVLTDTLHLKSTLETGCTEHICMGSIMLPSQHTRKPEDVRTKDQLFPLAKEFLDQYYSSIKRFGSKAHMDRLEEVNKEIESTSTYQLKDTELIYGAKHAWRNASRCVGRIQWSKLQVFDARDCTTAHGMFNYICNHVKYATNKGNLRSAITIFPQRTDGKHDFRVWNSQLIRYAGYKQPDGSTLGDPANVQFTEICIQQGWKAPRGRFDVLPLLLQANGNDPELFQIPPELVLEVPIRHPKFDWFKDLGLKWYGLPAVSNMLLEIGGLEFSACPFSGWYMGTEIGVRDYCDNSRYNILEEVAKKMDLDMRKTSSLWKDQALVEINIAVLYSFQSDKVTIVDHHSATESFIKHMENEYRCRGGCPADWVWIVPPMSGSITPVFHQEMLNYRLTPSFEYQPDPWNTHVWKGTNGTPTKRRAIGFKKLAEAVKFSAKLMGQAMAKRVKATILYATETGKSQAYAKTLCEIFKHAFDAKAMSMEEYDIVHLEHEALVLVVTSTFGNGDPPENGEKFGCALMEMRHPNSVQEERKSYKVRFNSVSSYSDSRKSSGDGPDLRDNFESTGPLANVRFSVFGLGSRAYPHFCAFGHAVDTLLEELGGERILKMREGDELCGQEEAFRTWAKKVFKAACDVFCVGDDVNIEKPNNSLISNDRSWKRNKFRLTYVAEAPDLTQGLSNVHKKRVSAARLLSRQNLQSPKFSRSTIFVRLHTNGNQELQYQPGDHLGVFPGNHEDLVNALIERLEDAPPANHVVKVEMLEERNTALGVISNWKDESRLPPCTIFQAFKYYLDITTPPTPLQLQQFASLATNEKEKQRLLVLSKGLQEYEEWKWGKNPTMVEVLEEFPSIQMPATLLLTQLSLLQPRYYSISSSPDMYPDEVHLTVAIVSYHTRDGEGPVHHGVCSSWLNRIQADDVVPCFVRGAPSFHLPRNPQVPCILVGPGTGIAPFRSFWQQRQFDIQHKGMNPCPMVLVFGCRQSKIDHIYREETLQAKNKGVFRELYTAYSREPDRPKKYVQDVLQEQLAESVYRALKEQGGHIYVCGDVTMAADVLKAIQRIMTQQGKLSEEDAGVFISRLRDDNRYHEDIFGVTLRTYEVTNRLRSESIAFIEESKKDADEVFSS

[5] = DRUGMATRIX: Platelet-Derived Growth Factor (PDGF) radioligand binding (ligand: [125I] PDGF); assay type: cell-based; details: nih3t3; Not Active = under 50% inhibition at 10 µM
[6] = target: Tyrosine-protein kinase Lck (Homo sapiens, UniProt P06239); assay: DRUGMATRIX: Protein Tyrosine Kinase, LCK enzyme inhibition (substrate: Poly(Glu:Tyr)); assay type: cell-based, Insect cells; details: insect cells; Not Active = under 50% inhibition at 10 µM
Sequence of Tyrosine-protein kinase Lck (P06239 whole entry): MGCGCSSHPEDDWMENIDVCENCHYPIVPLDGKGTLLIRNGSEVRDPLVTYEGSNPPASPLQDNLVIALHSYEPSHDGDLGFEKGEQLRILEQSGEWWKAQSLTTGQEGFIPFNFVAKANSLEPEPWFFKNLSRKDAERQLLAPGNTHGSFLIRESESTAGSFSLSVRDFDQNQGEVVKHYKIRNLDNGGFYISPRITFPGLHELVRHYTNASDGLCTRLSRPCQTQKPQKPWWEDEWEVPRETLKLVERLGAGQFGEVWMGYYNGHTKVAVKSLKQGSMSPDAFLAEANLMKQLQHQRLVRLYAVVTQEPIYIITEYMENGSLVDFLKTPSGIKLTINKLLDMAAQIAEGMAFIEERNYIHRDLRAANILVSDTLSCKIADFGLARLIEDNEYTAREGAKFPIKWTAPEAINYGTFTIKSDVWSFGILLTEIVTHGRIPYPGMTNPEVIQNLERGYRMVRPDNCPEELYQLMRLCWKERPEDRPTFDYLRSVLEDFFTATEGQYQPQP

Acetylcholinesterase = Acetylcholinesterase (Homo sapiens, UniProt P22303); assay: DRUGMATRIX: Acetylcholinesterase enzyme inhibition (substrate: acetylthiocholine); assay type: cell-based, HEK293; details: hek293; Not Active = under 50% inhibition at 10 µM
Sequence of Acetylcholinesterase (P22303 whole entry): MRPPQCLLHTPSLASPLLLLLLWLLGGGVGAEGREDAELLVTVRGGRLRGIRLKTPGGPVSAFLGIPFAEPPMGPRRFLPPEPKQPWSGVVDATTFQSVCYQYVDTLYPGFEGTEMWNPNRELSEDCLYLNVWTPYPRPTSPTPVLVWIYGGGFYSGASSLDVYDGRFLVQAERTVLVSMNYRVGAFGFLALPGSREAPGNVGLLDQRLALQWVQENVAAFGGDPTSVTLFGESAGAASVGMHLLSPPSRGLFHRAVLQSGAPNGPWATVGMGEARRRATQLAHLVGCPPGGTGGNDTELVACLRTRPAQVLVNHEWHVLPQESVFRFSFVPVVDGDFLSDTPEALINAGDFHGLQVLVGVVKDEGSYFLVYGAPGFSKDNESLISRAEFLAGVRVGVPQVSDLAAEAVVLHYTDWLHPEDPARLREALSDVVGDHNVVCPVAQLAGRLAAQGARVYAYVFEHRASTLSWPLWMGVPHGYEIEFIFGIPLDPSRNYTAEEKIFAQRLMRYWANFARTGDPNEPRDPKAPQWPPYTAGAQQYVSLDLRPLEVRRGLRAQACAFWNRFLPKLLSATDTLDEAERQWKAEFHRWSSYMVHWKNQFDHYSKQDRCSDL

Cytochrome P450 2C19 = Cytochrome P450 2C19 (Homo sapiens, UniProt P33261); details: bti-tn-5b1-4; further: in other assays of this panel Not Active means under 50% inhibition at 10 µM
Sequence of Cytochrome P450 2C19 (P33261 whole entry): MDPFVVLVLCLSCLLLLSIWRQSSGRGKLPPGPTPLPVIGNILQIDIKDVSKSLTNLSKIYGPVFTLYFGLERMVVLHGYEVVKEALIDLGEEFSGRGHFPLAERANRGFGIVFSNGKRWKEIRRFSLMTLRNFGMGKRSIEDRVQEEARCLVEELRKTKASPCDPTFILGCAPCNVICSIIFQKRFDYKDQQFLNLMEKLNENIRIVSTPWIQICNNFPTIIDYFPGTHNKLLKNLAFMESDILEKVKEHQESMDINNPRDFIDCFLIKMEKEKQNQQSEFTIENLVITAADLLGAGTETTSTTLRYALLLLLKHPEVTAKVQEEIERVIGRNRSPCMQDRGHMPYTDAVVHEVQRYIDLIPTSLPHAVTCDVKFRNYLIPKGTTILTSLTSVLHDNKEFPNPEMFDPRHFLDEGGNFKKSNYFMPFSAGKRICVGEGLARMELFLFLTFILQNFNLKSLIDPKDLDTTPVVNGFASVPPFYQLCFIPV

Cc1onc(-c2ccccc2)c1-c1ccc(S(N)(=O)=O)cc1 [VALDECOXIB]
Not Active: IC50 (Calcitonin receptor) | IC50 [1] | IC50 [2] | IC50 [3] | Ki [3] | IC50 [4] | IC50 (Nitric oxide synthase 1) | IC50 [5] | Ki [5] | IC50 [6] | IC50 (Acetylcholinesterase) | IC50 (Cytochrome P450 2C19) | Ki (Cytochrome P450 2C19)

CC(=O)CC(c1ccccc1)c1c(O)c2ccccc2oc1=O (centres undefined) [WARFARIN]
Not Active: IC50 (Calcitonin receptor) | IC50 [1] | IC50 [2] | IC50 [3] | Ki [3] | IC50 [4] | IC50 (Nitric oxide synthase 1) | IC50 [5] | Ki [5] | IC50 [6] | IC50 (Acetylcholinesterase) | IC50 (Cytochrome P450 2C19) | Ki (Cytochrome P450 2C19)

[Cl-].[Cl-].[Zn+2] [ZINC CHLORIDE]
Not Active: IC50 (Calcitonin receptor) | IC50 [1] | IC50 [2] | IC50 [3] | Ki [3] | IC50 [4] | IC50 (Nitric oxide synthase 1) | IC50 [5] | Ki [5] | IC50 [6] | IC50 (Acetylcholinesterase) | IC50 (Cytochrome P450 2C19) | Ki (Cytochrome P450 2C19)
